This passage reports pest or weed control and plant injury results from patent publication US11472792B2, “Herbicidal mixtures” (SYNGENTA CROP PROTECTION AG, priority 2019, dated 2022).

Type in all cases: in vivo
Experiment [1] concerns Abutilon theophrasti (ABUTH). In words: Herbicidal efficacy, post-emergence application (glasshouse). The following applies: Abutilon theophrasti, 312 h, evaluated visually after 13 days, 100=total damage, 0=no damage, read-out: percentage phytotoxicity to the plant, ABUTH. On the procedure: (§1) Seeds of a variety of test species [Ipomoea hederacea (IPOHE); Zea mays (ZEAMX); Echinochloa crus-galli (ECHCG); Setaria faberi (SETFA); Abutilon theophrasti (ABUTH); Amaranthus retroflexus (AMARE)] were sown in standard sterilised soil in pots. After cultivation for one day (pre-emergence) or after 8 days cultivation (post-emergence) under controlled conditions in a glasshouse (at 24/16° C., day/night; 14 hours light; 65% humidity), the plants were sprayed with an aqueous spray solution derived from the formulation of the technical active ingredient in acetone/water (50:50) solution containing 0.5% Tween 20 (polyoxyethelyene sorbitan monolaurate, CAS RN 9005-64-5), subsequently diluted in water, and sprayed to give the stated application rate.
(§2) The test plants were then grown under controlled conditions in a glasshouse (at 24/16° C., day/night; 14 hours light; 65% humidity) and watered twice daily.
(§3) After 13 days for pre and post-emergence, the test was evaluated visually for percentage phytotoxicity to the plant (where 100=total damage to plant; 0=no damage to plant).

In experiment [2] the test system is Amaranthus retroflexus (AMARE). The description is as above. Particulars: Amaranthus retroflexus, 312 h, evaluated visually after 13 days, 100=total damage, 0=no damage, read-out: percentage phytotoxicity to the plant, AMARE. How it is done: as §1, §2, §3
The test system of experiment [3] is Echinochloa crus-galli (ECHCG). Described as above. Particulars: Echinochloa crus-galli, 312 h, evaluated visually after 13 days, 100=total damage, 0=no damage, read-out: percentage phytotoxicity to the plant, ECHCG. How it is done:
as §1, §2, §3

Experiment [4] has as its system Ipomoea hederacea (IPOHE). The experiment is described as above. The following applies: Ipomoea hederacea, 312 h, evaluated visually after 13 days, 100=total damage, 0=no damage, read-out: percentage phytotoxicity to the plant, IPOHE. How it is done:
as §1, §2, §3

Experiment [5] relates to Setaria faberi (SETFA). The experiment is described as above. The following applies: Setaria faberi, 312 h, evaluated visually after 13 days, 100=total damage, 0=no damage, read-out: percentage phytotoxicity to the plant, SETFA. On the procedure: as §1, §2, §3
The subject of experiment [6] is Zea mays (ZEAMX). The experiment is described as above. Particulars: Zea mays, 312 h, evaluated visually after 13 days, 100=total damage, 0=no damage, read-out: percentage phytotoxicity to the plant, ZEAMX. On the procedure: as §1, §2, §3
The test system of experiment [7] is Abutilon theophrasti (ABUTH). In words: Herbicidal efficacy, pre-emergence application (glasshouse). Particulars: Abutilon theophrasti, 312 h, evaluated visually after 13 days, 100=total damage, 0=no damage, read-out: percentage phytotoxicity to the plant, ABUTH. How it is done:
as §1, §2, §3

In experiment [8] the test system is Amaranthus retroflexus (AMARE). The experiment is described as above. Particulars: Amaranthus retroflexus, 312 h, evaluated visually after 13 days, 100=total damage, 0=no damage, read-out: percentage phytotoxicity to the plant, AMARE. How it is done: as §1, §2, §3
For experiment [9], the system named is Echinochloa crus-galli (ECHCG). The description is as above. Particulars: Echinochloa crus-galli, 312 h, evaluated visually after 13 days, 100=total damage, 0=no damage, read-out: percentage phytotoxicity to the plant, ECHCG. On the procedure:
as §1, §2, §3

The subject of experiment [10] is Ipomoea hederacea (IPOHE). Described as above. Particulars: Ipomoea hederacea, 312 h, evaluated visually after 13 days, 100=total damage, 0=no damage, read-out: percentage phytotoxicity to the plant, IPOHE. On the procedure:
as §1, §2, §3

For experiment [11], the system named is Setaria faberi (SETFA). Described as above. The following applies: Setaria faberi, 312 h, evaluated visually after 13 days, 100=total damage, 0=no damage, read-out: percentage phytotoxicity to the plant, SETFA. On the procedure: as §1, §2, §3
Experiment [12] concerns Zea mays (ZEAMX). Described as above. The following applies: Zea mays, 312 h, evaluated visually after 13 days, 100=total damage, 0=no damage, read-out: percentage phytotoxicity to the plant, ZEAMX. How it is done:
as §1, §2, §3

As for `CN1C[C@H](c2cc(C(F)(F)F)n(C)n2)[C@@H](C(=O)Nc2cccc(F)c2OC(F)(F)F)C1=O` [Compound 2.4, (3S,4R)-N-[3-fluoro-2-(trifluoromethoxy)phenyl]-1-methyl-4-[1-methyl-5-(trifluoromethyl)pyrazol-3-yl]-2-oxo-pyrrolidine-3-carboxamide], the pest or weed control at 250 g/ha in experiment [1] came out at 0%; in [2], 0%; in [3] it was 70%; in experiment [4], 0%; in the experiment on Setaria faberi (SETFA) [5], 70%; in experiment [7], 0%. Besides, the pest or weed control at 250 g/ha in experiment [8] came out at 0%; in experiment [9] it was 90%; in experiment [10], 50%; with Setaria faberi (SETFA) [11], 90%. Also, the plant injury at 250 g/ha in the experiment on Zea mays (ZEAMX) [6] amounted to 0%; in the experiment on Zea mays (ZEAMX) [12], 30%.

In the case of `CN1C[C@H](c2cc(C(F)(F)F)n(C)n2)[C@@H](C(=O)Nc2ccc(F)nc2F)C1=O` [Compound 2.8, (3S,4R)-N-(2,6-difluoro-3-pyridyl)-1-methyl-4-[1-methyl-5-(trifluoromethyl)pyrazol-3-yl]-2-oxo-pyrrolidine-3-carboxamide], the pest or weed control at 250 g/ha in experiment [1] came to 0%; in [2], 0%; in experiment [3] it was 80%; in [4], 30%; with Setaria faberi (SETFA) [5], 80%; in experiment [7], 0%. In addition, the pest or weed control at 250 g/ha turned out to be 20% in experiment [8], 90% in experiment [9], 0% in [10] and 90% in the experiment on Setaria faberi (SETFA) [11]. Further, the plant injury at 250 g/ha in the experiment on Zea mays (ZEAMX) [6] stood at 80%; in the experiment with Zea mays (ZEAMX) [12], 40%.

Turning to `CN1C[C@H](c2cc(C(F)(F)F)n(C)n2)[C@@H](C(=O)Nc2cccc(F)n2)C1=O` [Compound 2.9, (3S,4R)-N-(6-fluoro-2-pyridyl)-1-methyl-4-[1-methyl-5-(trifluoromethyl)pyrazol-3-yl]-2-oxo-pyrrolidine-3-carboxamide], the pest or weed control at 250 g/ha came out at 0% in experiment [1]; 0% in experiment [2]; 80% in experiment [3]; 50% in experiment [4]; 80% in the experiment with Setaria faberi (SETFA) [5]; 0% in [7]. For the same molecule, the pest or weed control at 250 g/ha turned out to be 0% in experiment [8], 100% in experiment [9], 40% in [10] and 90% with Setaria faberi (SETFA) [11]. The plant injury at 250 g/ha in the experiment with Zea mays (ZEAMX) [6] worked out at 40%; with Zea mays (ZEAMX) [12], 80%.

As for `CN1C[C@H](c2cc(C(F)(F)F)n(C)n2)[C@@H](C(=O)Nc2ccc(F)c(F)c2F)C1=O` [Compound 2.7, (3S,4R)-1-methyl-4-[1-methyl-5-(trifluoromethyl)pyrazol-3-yl]-2-oxo-N-(2,3,4-trifluorophenyl)pyrrolidine-3-carboxamide], the pest or weed control at 250 g/ha in [1] was 0%; in experiment [2], 50%; in experiment [3] it was 80%; in [4], 0%; with Setaria faberi (SETFA) [5] it was 80%; in [7], 10%. Besides, the pest or weed control at 250 g/ha in [8] was 20%; in [9] it was 100%; in [10] it was 20%; with Setaria faberi (SETFA) [11], 90%. Also, the figures for the plant injury at 250 g/ha in the experiment with Zea mays (ZEAMX) [6] and in the experiment on Zea mays (ZEAMX) [12] were 80% and 90%, respectively.
